# According to publication doi:10.1101/2022.11.22.517505v1 (biorxiv, 2022):
# Key:
# GSK3A [1] = target: T1, GSK3A (Homo sapiens, UniProt P49840); assay: HotSpot radiometric […]-ATP kinase assay; assay type: biochemical; details: remaining activity, mean of two replicates
# Target sequence in this assay (P49840 2-483): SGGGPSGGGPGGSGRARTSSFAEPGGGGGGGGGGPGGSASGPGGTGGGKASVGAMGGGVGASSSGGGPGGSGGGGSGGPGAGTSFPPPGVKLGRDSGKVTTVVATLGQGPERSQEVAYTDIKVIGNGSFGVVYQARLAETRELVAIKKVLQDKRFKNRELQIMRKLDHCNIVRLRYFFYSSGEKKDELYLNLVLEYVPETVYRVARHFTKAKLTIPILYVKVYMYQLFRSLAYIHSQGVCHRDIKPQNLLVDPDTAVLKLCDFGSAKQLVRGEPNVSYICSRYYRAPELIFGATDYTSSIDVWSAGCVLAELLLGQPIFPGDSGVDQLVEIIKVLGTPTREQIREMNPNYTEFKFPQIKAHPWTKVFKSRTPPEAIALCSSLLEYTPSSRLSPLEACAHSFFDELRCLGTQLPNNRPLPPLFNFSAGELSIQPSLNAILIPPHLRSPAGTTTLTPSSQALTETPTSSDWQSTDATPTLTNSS
# GSK3B [2] = target: T2, GSK3B (Homo sapiens, UniProt P49841); assay: HotSpot radiometric […]-ATP kinase assay; assay type: biochemical; details: remaining activity, mean of two replicates
# PLK2 [3] = target: T3, PLK2 (Homo sapiens, UniProt Q9NYY3); assay: HotSpot radiometric […]-ATP kinase assay; assay type: biochemical; details: remaining activity, mean of two replicates
# T3 sequence (Q9NYY3 whole entry): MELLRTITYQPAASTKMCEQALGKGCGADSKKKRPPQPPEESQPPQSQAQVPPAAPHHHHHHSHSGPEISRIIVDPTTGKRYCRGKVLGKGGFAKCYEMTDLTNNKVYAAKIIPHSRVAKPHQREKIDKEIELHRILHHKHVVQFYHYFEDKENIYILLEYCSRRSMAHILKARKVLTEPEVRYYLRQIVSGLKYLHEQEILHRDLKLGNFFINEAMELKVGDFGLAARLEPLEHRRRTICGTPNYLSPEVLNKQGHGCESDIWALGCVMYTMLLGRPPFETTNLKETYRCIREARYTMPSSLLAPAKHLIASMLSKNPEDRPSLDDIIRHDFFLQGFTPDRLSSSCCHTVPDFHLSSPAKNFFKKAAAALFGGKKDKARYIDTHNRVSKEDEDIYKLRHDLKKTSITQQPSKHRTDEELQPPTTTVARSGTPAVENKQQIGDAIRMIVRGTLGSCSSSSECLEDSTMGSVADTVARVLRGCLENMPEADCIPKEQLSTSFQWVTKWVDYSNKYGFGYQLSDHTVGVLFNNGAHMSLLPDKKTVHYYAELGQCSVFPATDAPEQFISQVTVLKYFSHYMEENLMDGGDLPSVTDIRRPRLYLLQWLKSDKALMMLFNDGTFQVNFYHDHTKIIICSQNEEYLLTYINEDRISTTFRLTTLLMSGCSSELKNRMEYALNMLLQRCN
# CSNK1E = CSNK1E (Homo sapiens, UniProt P49674); assay: biochemical; details: read-out: % of control remaining
# Chain of CSNK1E (P49674 whole entry, the tested form may be a part): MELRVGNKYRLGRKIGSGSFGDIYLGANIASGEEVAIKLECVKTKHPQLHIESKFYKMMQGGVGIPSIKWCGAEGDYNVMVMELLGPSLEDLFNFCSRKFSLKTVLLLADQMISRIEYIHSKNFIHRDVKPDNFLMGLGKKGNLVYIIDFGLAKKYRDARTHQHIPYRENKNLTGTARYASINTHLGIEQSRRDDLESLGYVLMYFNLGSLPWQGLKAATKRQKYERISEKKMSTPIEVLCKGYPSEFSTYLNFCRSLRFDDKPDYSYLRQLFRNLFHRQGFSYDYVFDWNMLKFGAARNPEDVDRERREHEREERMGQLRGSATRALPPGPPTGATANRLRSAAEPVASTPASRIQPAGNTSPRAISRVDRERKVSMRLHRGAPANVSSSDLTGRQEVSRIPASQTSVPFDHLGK
# [4] = target: GSK3A (NanoLuc fusion, HEK293 cells) (Homo sapiens, UniProt P49840); assay: NanoBRET target engagement, tracer displacement, intact cells; assay type: cell-based
# Chain of GSK3A (NanoLuc fusion, HEK293 cells) (P49840 2-483): as the sequence (P49840 2-483) above
# GSK3B [5] = target: T2, GSK3B; assay: HotSpot radiometric […]-ATP kinase assay; assay type: biochemical
# PARP1 = PARP1 (Homo sapiens, UniProt P09874); assay: BPS PARP assay kit, biotin-NAD+ luminescence; assay type: biochemical; details: read-out: % inhibition at 10 μM
# Chain of PARP1 (P09874 2-1014): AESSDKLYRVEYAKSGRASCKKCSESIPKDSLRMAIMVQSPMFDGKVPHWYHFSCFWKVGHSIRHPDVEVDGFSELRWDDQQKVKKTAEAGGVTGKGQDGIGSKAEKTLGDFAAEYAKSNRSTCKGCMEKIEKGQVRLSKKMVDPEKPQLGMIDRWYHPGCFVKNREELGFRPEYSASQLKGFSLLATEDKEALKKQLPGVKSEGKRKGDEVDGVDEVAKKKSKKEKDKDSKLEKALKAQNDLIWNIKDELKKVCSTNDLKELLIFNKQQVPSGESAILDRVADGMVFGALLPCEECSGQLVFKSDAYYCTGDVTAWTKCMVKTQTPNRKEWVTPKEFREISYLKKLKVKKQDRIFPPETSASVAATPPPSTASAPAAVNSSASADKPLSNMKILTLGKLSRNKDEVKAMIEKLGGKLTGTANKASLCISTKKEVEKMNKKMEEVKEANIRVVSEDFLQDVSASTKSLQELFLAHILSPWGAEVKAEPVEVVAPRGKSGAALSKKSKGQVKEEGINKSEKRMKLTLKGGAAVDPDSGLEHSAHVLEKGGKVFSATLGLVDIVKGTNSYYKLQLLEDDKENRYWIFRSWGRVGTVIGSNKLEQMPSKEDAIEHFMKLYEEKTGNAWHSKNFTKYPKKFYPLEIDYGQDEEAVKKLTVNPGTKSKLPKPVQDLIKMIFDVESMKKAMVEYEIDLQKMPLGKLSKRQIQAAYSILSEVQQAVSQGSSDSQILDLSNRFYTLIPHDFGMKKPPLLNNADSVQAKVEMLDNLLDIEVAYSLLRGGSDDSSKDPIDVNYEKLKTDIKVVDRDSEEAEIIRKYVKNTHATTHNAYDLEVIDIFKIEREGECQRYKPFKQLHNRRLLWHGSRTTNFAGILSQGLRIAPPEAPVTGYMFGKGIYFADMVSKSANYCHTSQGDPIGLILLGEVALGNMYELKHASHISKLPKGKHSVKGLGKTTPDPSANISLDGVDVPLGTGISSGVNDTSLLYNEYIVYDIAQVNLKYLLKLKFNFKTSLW
# PLK2 [6] = target: T3, PLK2; assay: HotSpot radiometric […]-ATP kinase assay; assay type: biochemical
# [7] = target: PLK2 (NanoLuc fusion, HEK293 cells) (Homo sapiens, UniProt Q9NYY3); assay: NanoBRET target engagement, tracer displacement, intact cells; assay type: cell-based
# Chain of PLK2 (NanoLuc fusion, HEK293 cells) (Q9NYY3 whole entry, the tested form may be a part): as the sequence (Q9NYY3 whole entry) above
# PARP2 = PARP2 (Homo sapiens, UniProt Q9UGN5); assay: BPS PARP assay kit, biotin-NAD+ luminescence; assay type: biochemical; details: read-out: % inhibition at 10 μM
# Chain of PARP2 (Q9UGN5 whole entry): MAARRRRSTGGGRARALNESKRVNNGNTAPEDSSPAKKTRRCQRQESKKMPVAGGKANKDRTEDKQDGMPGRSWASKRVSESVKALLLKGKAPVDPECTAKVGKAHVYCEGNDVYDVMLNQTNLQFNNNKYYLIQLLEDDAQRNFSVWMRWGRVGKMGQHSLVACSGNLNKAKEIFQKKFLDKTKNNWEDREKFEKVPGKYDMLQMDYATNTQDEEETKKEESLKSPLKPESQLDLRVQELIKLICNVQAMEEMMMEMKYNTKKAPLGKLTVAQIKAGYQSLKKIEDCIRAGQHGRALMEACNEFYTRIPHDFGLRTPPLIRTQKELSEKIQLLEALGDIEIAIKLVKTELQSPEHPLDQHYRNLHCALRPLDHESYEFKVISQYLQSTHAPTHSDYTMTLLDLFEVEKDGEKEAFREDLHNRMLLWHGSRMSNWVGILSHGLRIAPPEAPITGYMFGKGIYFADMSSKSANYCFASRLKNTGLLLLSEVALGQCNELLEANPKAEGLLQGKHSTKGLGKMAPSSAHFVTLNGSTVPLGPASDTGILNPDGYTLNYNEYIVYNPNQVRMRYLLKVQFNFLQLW
# GSK3A [8] = target: T1, GSK3A; assay: HotSpot radiometric […]-ATP kinase assay; assay type: biochemical
# Target sequence in this assay (P49840 2-483): as the sequence (P49840 2-483) above
# GSK3A [9] = target: T1, GSK3A; assay: biochemical; details: read-out: % of control remaining
# Target sequence in this assay (P49840 whole entry): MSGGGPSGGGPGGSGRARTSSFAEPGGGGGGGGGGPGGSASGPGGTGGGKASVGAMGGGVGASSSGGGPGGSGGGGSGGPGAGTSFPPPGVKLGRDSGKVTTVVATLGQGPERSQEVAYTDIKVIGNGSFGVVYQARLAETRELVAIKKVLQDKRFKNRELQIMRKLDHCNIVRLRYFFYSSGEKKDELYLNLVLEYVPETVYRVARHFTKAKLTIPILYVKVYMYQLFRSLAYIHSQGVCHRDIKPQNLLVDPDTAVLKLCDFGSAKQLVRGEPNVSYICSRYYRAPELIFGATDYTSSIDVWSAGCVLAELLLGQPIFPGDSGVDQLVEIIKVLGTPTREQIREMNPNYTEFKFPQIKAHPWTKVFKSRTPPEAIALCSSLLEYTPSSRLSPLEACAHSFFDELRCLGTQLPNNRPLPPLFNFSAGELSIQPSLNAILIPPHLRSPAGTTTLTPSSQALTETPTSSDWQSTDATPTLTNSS
# GSK3B [10] = target: T2, GSK3B; assay: biochemical; details: read-out: % of control remaining
# PLK2 [11] = target: T3, PLK2; assay: biochemical; details: read-out: % of control remaining
# T2 sequence (P49841 whole entry): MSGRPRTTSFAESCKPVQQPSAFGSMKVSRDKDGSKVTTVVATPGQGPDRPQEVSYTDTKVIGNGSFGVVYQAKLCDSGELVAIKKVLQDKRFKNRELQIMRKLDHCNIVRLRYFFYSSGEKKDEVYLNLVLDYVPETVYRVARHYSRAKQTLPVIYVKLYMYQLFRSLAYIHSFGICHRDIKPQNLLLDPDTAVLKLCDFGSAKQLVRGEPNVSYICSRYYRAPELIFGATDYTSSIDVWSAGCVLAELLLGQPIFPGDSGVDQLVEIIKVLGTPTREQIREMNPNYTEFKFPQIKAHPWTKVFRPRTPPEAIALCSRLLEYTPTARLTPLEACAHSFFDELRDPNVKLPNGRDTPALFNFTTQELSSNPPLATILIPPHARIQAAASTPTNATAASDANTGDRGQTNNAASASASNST
SMILES,Enzyme activity (%) at 1 μM (GSK3A [1]),Enzyme activity (%) at 1 μM (GSK3B [2]),Enzyme activity (%) at 1 μM (PLK2 [3]),remaining activity at 1 µM (CSNK1E),EC50 [4],IC50 (GSK3B [5]),inhibition at 10 µM (PARP1),IC50 (PLK2 [6]),EC50 [7],inhibition at 10 µM (PARP2),IC50 (GSK3A [8]),remaining activity at 1 µM (GSK3A [9]),remaining activity at 1 µM (GSK3B [10]),remaining activity at 1 µM (PLK2 [11])
CNCc1ccc(-c2[nH]c3cc(F)cc4c3c2CCNC4=O)cc1 [rucaparib],74.15%,35.38%,88.95%,103%,–,–,–,–,–,–,–,–,–,–
O=C(O)c1ccc(-c2[nH]c3cc(F)cc4c3c2CCNC4=O)cc1 [M324],–,–,–,102%,15000 nM,2000 nM,100%,591 nM,5080 nM,100%,579 nM,34.4%,63.1%,40.7%
